We go through three compounds from patent US20230310573A1, “Stabilized Vaccine Compositions” (priority 2020, published 2023).

Series [1] addresses T1, RSV pre-fusion F protein of SEQ ID NO: 10 (Human respiratory syncytial virus A, UniProt P03420, D486N/DEL108-136/I379V/M447V/N67I/P102A/S215P).
T1 construct: made in house
In kind it is physicochemical. The conditions noted are these: for trimer % after slow freeze with compound vs without: all formulation buffers (AP1, FB12, formulation 1 and 2); for aggregation after slow freeze: formulation 5b (pH 8.3) and 5a (pH 7.0). As to the method: The RSV pre-fusion F protein of SEQ ID NO: 10 was diluted to 0.3 mg/ml in phosphate buffer (Formulation 1) and 0.75 ml was filled in glass injection vials with rubber stopper and sealed with aluminum caps. Additionally, protein was diluted in the formulation buffers with inhibitor in a 1:3 trimer:compound ratio. One inhibitor binds one trimer so with a 1:3 ratio there is an excess of inhibitor. […] In 24 hours, samples were cooled down from RT to −70° C. Samples were thawed to RT and analyzed by analytical Size Exclusion Chromatography (SEC) to measure loss of RSV F trimer.
0.75 ml of each formulation was filled in glass injection vials with rubber stopper and sealed with aluminum caps. Additionally, protein was diluted in the formulation buffers and inhibitor was added in a 1:1, 1:3, 1:9, 1:27 and 1:50 trimer: compound ratio. Final compound concentrations were 1.7×10^−6 M, 5.2×10^−6 M, 1.6×10^−5M, 4.6×10^−5, and 8.6×10^−5 M, respectively. Vials were slowly frozen to −70° C. in 24 hours. Samples were subsequently thawed to RT and analyzed by analytical Size Exclusion Chromatography (SEC) to measure loss of RSV F trimer compared the sample that was kept at 4° C.

Series [2] has as its target T2, RSV pre-fusion F (preF) protein of SEQ ID NO: 10 (Human respiratory syncytial virus A, UniProt P03420, D486N/DEL108-136/I379V/M447V/N67I/P102A/S215P).
T2 construct: made in house
In kind it is physicochemical. The conditions noted are these: with compound 1:3 trimer:compound in sample and UF/DF buffer; formulation 2 without PS20; two weeks after UF/DF.
Description: The UF/DF was performed with and without compound. […] A kDa filter in the UF/DF (Cogent μscale TFF system (Merck Millipore, Burlington, MA)) was used and a diavolume of 350 ml UF/DF buffer was used.
After the UF/DF the hydrodynamic diameters were measured by Dynamic Light Scattering (DLS) UNcle from vendor Unchained Labs (Pleasanton, CA, US) two weeks after the UF/DF.

Series [3] has as its target HIV-1 ConB-SOSIP Env (Human immunodeficiency virus type 1 group M subtype B, UniProt P04578, A336T/A346V/A501C/A612T/D137T/D187N/D632E/D99N/DEL145-146/DEL310-311/DEL356-356/DEL401-405/DUP460-460/E409T/E464T/E509R/E620D/E630Q/F175L/F396S/G167D/G321D/H625N/H643Y/I148K/I181V/I182V/I320G/I360V/I467T/I559P/I580V/INS134N/INS317Y/INS395N/INS508RR/K130N/K135N/K192R/K322I/K362N/K429E/K510R/L518M/M147E/M326I/M535I/N230D/N325D/N624D/N636D/Q621E/R306S/R308H/S128T/S162T/S347K/S387T/S398G/S411N/S440R/S461N/S465T/S640G/S644T/T140N/T188N/T194I/T232K/T290E/T31A/T373M/T605C/T626M/V275E/V318A/V87E). The series can be described thus: Thermostability of HIV-1 ConB-SOSIP Env by nanoDSF. In kind it is physicochemical. The conditions noted are these: 50-fold molar excess of inhibitor; Env 0.8 mg/ml; DMSO 1.95% v/v. (In general: Differential scanning fluorimetry follows unfolding on heating by fluorescence.)

The target of series [4] is T3, HIV Env ConB SOSIP (Human immunodeficiency virus type 1 group M subtype B, UniProt P04578, A336T/A346V/A501C/A612T/D137T/D187N/D632E/D99N/DEL145-146/DEL310-311/DEL356-356/DEL401-405/DUP460-460/E409T/E464T/E509R/E620D/E630Q/F175L/F396S/G167D/G321D/H625N/H643Y/I148K/I181V/I182V/I320G/I360V/I467T/I559P/I580V/INS134N/INS317Y/INS395N/INS508RR/K130N/K135N/K192R/K322I/K362N/K429E/K510R/L518M/M147E/M326I/M535I/N230D/N325D/N624D/N636D/Q621E/R306S/R308H/S128T/S162T/S347K/S387T/S398G/S411N/S440R/S461N/S465T/S640G/S644T/T140N/T188N/T194I/T232K/T290E/T31A/T373M/T605C/T626M/V275E/V318A/V87E).
T3 construct: made in house; host or cells: HEK293F
The series can be described thus: Storage stability of ConB-SOSIP Env, antigenicity by AlphaLISA (bNAbs / non-bNAbs). In kind it is binding, HIV-1. The settings on record: 1 week at 4° C., 50-fold excess. As to the method:
HIV env trimer was incubated in Citrate buffer (20 mM Citrate. 75 mM NaCl 5% Sucrose, 0.03% Tween-80 pH 6.0) at 0.8 mg/ml for 1 week at 4° C. with or without inhibitor. Entry inhibitor XVII was added in a 50-fold excess to the purified Env ConB SOSIP. As the inhibitor was dissolved in DMSO, the control sample with only Env contained the same concentration of DMSO (1.95% v/v) as the Env with the inhibitor. The quality of HIV Env can be evaluated with broadly neutralizing antibodies (bNAbs) that bind the closed, native pre-fusion conformation of Env, versus non-broadly neutralizing antibodies (non-bNAbs) which recognize non natively folded Envs (Rutten et. al., Cell Reports 18). […] Preferential binding to bNAbs was higher and binding to all five tested non-bNAbs, except for 447-52D, was decreased for the composition that contained the inhibitor.

Consider `CS(=O)(=O)CCCn1c(Cn2c(=O)n(C3CC3)c3ccncc32)nc2cc(Cl)ccc21` [Compound II, 3-[[5-chloro-1-(3-methylsulfonylpropyl)benzimidazol-2-yl]methyl]-1-cyclopropyl-imidazo[4,5-c]pyridin-2-one], for which, in series [1], the “trimer % after slow freeze with compound vs without” value is recorded as “higher trimer %” and the “aggregation after slow freeze” value was “no aggregations were observed”. Further, in series [1] (phosphate buffer (Formulation 1), preF 0.3 mg/ml, 1:3 trimer:compound, RT to −70° C. in 24 hours), the “trimer signal lost after slow freeze/thaw (analytical SEC)” value is 2.4+/−1.9%.

Take `CS(=O)(=O)CCCn1c(Cn2c(=O)n(CC(F)(F)F)c3ccncc32)cc2cc(Cl)ccc21` [Compound IV, 3-[[5-chloro-1-(3-methylsulfonylpropyl)indol-2-yl]methyl]-1-(2,2,2-trifluoroethyl)imidazo[4,5-c]pyridin-2-one]: in series [2], the “hydrodynamic diameter (DLS) after UF/DF” value came out at 8.65 nm. Besides, in series [1], the “trimer % after slow freeze with compound vs without” value is “higher trimer %” and the “aggregation after slow freeze” value is listed as “no aggregations were observed”.

`COc1ccnc2[nH]cc(C(=O)C(=O)N3CCN(C(=O)c4ccccc4)C[C@H]3C)c12` [XVII, 1-[(2R)-4-benzoyl-2-methyl-piperazin-1-yl]-2-(4-methoxy-1H-pyrrolo[2,3-b]pyridin-3-yl)ethane-1,2-dione]: the “increase of melting temperature of Env (nanoDSF)” value in series [3] was about 5 °C. Also, in series [4], the “binding to bNAbs vs Env without inhibitor” value is reported as “higher” and the “binding to five tested non-bNAbs, except for 447-52D, vs Env without inhibitor” value is “decreased”. Also, the “quality of HIV Env by antigenicity (AlphaLISA) vs Env without inhibitor” value in series [4] (Citrate buffer pH 6.0) was “superior”.
